Assays:
[1] = target: Adenosine receptor A2a (Homo sapiens, UniProt P29274); assay: DRUGMATRIX: Adenosine A2A radioligand binding (ligand: […]); format: cell membranes, HEK293, Membrane; conditions: Not Active = under 50% inhibition at 10 µM; for Ki: read-out: Ki
[2] = target: 5-hydroxytryptamine receptor 4 (Cavia porcellus, UniProt O70528); format: cell membranes, Dunkin-Hartley, Striatum, Membrane; also: in other assays of this panel Not Active means under 50% inhibition at 10 µM
[3] = target: Insulin receptor (Rattus norvegicus, UniProt P15127); format: cell membranes, Wistar, Liver, Membrane; also: in other assays of this panel Not Active means under 50% inhibition at 10 µM
Sequence of Insulin receptor (P15127 27-759 limits assumed): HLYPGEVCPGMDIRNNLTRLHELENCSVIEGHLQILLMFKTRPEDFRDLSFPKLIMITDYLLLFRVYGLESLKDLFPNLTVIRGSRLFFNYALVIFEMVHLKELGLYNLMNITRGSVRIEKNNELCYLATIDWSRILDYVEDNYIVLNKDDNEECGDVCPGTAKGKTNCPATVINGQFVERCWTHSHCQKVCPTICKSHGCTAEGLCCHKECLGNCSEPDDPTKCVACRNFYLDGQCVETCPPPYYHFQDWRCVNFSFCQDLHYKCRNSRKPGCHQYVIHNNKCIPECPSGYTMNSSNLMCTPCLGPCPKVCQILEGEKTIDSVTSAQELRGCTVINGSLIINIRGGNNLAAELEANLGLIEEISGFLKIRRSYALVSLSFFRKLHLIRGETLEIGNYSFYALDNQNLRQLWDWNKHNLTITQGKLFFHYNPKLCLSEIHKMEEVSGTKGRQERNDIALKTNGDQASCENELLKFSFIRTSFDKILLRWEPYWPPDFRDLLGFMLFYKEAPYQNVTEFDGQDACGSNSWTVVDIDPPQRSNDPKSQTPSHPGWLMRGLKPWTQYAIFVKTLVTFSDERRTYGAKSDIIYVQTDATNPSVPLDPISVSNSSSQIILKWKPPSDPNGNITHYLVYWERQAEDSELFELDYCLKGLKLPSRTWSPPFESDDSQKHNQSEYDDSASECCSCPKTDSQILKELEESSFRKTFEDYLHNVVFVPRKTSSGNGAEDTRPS
Sequence of Insulin receptor (P15127 764-1383 limits assumed): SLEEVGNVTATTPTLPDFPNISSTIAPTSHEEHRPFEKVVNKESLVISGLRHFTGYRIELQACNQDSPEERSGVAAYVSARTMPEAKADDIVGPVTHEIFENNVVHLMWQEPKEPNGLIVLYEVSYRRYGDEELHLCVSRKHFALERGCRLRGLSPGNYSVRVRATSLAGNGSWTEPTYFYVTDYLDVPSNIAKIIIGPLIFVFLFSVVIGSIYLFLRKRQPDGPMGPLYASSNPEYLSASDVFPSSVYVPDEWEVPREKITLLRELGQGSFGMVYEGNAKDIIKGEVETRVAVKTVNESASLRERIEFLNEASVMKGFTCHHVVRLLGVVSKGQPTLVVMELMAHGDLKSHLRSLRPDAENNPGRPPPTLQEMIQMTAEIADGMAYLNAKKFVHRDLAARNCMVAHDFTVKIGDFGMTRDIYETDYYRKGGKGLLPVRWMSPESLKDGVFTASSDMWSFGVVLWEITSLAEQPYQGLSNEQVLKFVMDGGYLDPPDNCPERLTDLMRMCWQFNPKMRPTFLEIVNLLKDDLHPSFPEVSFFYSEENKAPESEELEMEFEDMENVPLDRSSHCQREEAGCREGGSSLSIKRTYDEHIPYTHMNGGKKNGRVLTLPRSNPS

[4] = target: T1, C-X-C chemokine receptor type 2 (Homo sapiens, UniProt P25025); format: cell membranes, Membrane; conditions: cho-k1; also: in other assays of this panel Not Active means under 50% inhibition at 10 µM
T1 sequence (P25025 whole entry): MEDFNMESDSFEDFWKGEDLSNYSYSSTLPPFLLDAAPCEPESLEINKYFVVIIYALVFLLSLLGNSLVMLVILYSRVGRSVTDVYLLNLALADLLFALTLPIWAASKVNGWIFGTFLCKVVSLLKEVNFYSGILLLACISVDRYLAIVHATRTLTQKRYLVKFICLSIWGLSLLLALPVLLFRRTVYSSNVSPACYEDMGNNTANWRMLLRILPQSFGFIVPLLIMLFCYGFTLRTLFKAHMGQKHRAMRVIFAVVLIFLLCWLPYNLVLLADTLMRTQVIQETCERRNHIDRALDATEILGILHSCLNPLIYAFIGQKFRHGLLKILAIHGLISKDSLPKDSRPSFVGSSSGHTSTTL

[5] = target: Cytochrome P450 2D6 (Homo sapiens, UniProt P10635); conditions: bti-tn-5b1-4; also: in other assays of this panel Not Active means under 50% inhibition at 10 µM
Sequence of Cytochrome P450 2D6 (P10635 whole entry): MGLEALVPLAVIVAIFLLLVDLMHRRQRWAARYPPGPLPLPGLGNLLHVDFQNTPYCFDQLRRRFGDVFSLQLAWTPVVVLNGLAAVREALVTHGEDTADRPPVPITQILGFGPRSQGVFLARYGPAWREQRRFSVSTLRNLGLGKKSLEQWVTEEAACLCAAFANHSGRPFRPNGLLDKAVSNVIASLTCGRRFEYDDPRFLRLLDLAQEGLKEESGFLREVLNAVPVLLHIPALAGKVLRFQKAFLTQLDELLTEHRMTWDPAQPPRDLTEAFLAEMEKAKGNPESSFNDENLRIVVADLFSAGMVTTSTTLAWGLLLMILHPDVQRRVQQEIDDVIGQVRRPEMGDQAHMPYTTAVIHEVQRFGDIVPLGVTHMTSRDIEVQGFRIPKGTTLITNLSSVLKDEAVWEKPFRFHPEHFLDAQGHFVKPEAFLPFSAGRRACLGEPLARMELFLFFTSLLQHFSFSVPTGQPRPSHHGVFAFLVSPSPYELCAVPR

[6] = DRUGMATRIX: Phorbol Ester radioligand binding (ligand: [3H] PDBu); format: cell membranes, Mus musculus, ICR, Brain, Membrane; conditions: Not Active = under 50% inhibition at 10 µM
[7] = target: Mitogen-activated protein kinase 14 (Homo sapiens, UniProt Q16539); set-up: species or system Escherichia coli
Sequence of Mitogen-activated protein kinase 14 (Q16539 whole entry): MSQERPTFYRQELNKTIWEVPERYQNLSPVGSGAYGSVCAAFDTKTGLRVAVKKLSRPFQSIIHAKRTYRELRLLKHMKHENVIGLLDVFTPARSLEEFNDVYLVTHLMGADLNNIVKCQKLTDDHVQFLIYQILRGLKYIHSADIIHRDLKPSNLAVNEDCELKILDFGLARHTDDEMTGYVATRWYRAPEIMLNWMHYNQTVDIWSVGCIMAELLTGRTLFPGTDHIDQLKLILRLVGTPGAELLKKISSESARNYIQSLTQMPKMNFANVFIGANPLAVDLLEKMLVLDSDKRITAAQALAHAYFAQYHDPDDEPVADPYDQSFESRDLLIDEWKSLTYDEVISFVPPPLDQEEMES

Sequence of 5-hydroxytryptamine receptor 4 (O70528 whole entry): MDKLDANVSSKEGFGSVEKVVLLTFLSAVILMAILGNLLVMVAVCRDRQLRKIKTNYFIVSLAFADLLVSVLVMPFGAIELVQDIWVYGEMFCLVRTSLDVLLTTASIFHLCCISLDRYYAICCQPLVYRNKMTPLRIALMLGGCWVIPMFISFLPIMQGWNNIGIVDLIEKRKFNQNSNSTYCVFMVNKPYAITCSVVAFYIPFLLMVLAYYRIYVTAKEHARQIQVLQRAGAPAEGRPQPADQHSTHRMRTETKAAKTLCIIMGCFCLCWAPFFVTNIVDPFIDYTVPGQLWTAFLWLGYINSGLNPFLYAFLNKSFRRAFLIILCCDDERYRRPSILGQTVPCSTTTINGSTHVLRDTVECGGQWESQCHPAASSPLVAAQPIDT
Sequence of Adenosine receptor A2a (P29274 whole entry): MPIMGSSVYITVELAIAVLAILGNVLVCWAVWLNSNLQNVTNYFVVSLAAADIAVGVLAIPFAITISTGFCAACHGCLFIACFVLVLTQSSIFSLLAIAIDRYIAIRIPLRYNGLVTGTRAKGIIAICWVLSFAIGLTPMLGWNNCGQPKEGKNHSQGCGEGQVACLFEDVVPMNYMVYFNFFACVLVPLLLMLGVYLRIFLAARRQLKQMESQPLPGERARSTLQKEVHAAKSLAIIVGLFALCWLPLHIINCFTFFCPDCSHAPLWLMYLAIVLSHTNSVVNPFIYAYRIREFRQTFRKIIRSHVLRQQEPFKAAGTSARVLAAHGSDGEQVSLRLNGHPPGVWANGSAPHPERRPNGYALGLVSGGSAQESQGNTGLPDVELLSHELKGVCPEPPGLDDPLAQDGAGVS

Row | Compound | IC50 ([1]; hek293) | IC50 [2] | IC50 [3] | IC50 [4] | IC50 [5] | Ki [5] | IC50 [6] | Ki [6] | IC50 [7] | IC50 ([1]; read-out: IC50) | Ki [1]
1 | COc1ccccc1C(=O)N1CCC(Cc2ccccc2)CC1 | Not Active | Not Active | Not Active | Not Active | Not Active | Not Active | Not Active | Not Active |  |  | 
2 | N=C(Nc1ccccc1)Nc1ccccc1 | Not Active | Not Active | Not Active | Not Active |  |  | Not Active | Not Active | Not Active |  | 
3 | CCCCN1CCCCC1C(=O)Nc1c(C)cccc1C.Cl (stereo not drawn) [BUPIVACAINE HYDROCHLORIDE] | Not Active | Not Active | Not Active | Not Active |  |  | Not Active | Not Active | Not Active |  | 
4 | O=NN(CCCl)C(=O)NCCCl [CARMUSTINE] | Not Active | Not Active | Not Active | Not Active |  |  | Not Active | Not Active | Not Active |  | 
5 | CC1=C(C(=O)O)N2C(=O)[C@@H](NC(=O)[C@H](N)c3ccccc3)[C@H]2SC1 [CEPHALEXIN ANHYDROUS] | Not Active | Not Active | Not Active | Not Active |  |  | Not Active | Not Active | Not Active |  | 
6 | O=C(N[C@H](CO)[C@H](O)c1ccc([N+](=O)[O-])cc1)C(Cl)Cl [CHLORAMPHENICOL] | Not Active | Not Active | Not Active | Not Active |  |  | Not Active | Not Active | Not Active |  | 
7 | CCOC(=O)C(C)(C)Oc1ccc(Cl)cc1 [CLOFIBRATE] | Not Active | Not Active | Not Active | Not Active |  |  | Not Active | Not Active | Not Active |  | 
8 | C[C@@H]1C[C@@H]([C@H](O)CC2CC(=O)NC(=O)C2)C(=O)[C@@H](C)C1 [CYCLOHEXIMIDE] | Not Active | Not Active | Not Active | Not Active |  |  | Not Active | Not Active | Not Active |  | 
9 | C/C=C/C[C@@H](C)[C@@H](O)[C@H]1C(=O)N[C@@H](CC)C(=O)N(C)CC(=O)N(C)[C@@H](CC(C)C)C(=O)N[C@@H](C(C)C)C(=O)N(C)[C@@H](CC(C)C)C(=O)N[C@@H](C)C(=O)N[C@H](C)C(=O)N(C)[C@@H](CC(C)C)C(=O)N(C)[C@@H](CC(C)C)C(=O)N(C)[C@@H](C(C)C)C(=O)N1C [CYCLOSPORINE] | Not Active | Not Active | Not Active | Not Active |  |  | Not Active | Not Active | Not Active |  | 
10 | CCN1CC(CCN2CCOCC2)C(c2ccccc2)(c2ccccc2)C1=O (stereo not drawn) [DOXAPRAM] | Not Active | Not Active | Not Active | Not Active |  |  | Not Active | Not Active | Not Active |  | 
11 | CN(C)c1ccc(C(=C2C=CC(=[N+](C)C)C=C2)c2ccc(N(C)C)cc2)cc1.[Cl-] [GENTIAN VIOLET] |  | Not Active | Not Active | Not Active |  |  | Not Active | Not Active | Not Active | 3.37 µM | 1.89 µM
12 | NC(=O)NO [HYDROXYUREA] | Not Active | Not Active | Not Active | Not Active |  |  | Not Active | Not Active | Not Active |  | 
13 | COc1ccc2cc([C@H](C)C(=O)O)ccc2c1 [NAPROXEN] | Not Active | Not Active | Not Active | Not Active |  |  | Not Active | Not Active | Not Active |  | 
14 | COC(=O)C1=C(C)NC(C)=C(C(=O)OCC(C)C)C1c1ccccc1[N+](=O)[O-] (stereo not drawn) [NISOLDIPINE] |  | Not Active | Not Active | Not Active |  |  | Not Active | Not Active | Not Active | 4.06 µM | 2.28 µM
15 | CCn1cc(C(=O)O)c(=O)c2cc(F)c(N3CCN(C)CC3)cc21 [PEFLOXACIN] | Not Active | Not Active | Not Active | Not Active |  |  | Not Active | Not Active | Not Active |  | 
